In article doi:10.1101/2021.02.17.431525v1 (biorxiv, 2021):

Molecular target: GRB2 (growth factor receptor bound protein 2) (Homo sapiens, UniProt P62993)
Assay: biochemical

- Kd: 1530 ± 110 nM
Structure (SMILES): CC(C)=CCC[C@](C)(O)[C@H]1CC[C@]2(C)[C@@H]1[C@H](O)C[C@@H]1[C@@]3(C)CC[C@H](O[C@@H]4O[C@H](CO)[C@@H](O)[C@H](O)[C@H]4O[C@@H]4O[C@H](CO)[C@@H](O)[C@H](O)[C@H]4O)C(C)(C)[C@@H]3CC[C@]12C [ginsenoside Rg3]
